Consider 1 compound from ChEMBL document CHEMBL5634123, “Design and synthesis of 1H-benzo[d]imidazole selective HDAC6 inhibitors with potential therapy for multiple myeloma” (Eur J Med Chem, 2023).

Series [1] concerns RPMI-8226. In words: Induction of cell cycle arrest at G1 phase in human RPMI-8226 cells at 2.5 uM incubated for 24 hrs by PI staining based flow cytometry (reference value: 19.2 %). The series is classed as functional. A general note: A flow cytometer gives signals particle by particle.
Series [2] concerns RPMI-8226. In words: Induction of cell cycle arrest at S phase in human RPMI-8226 cells at 2.5 uM incubated for 24 hrs by PI staining based flow cytometry (reference value: 58.5 %). The series is classed as functional.
Series [3] deals with RPMI-8226. As to the kind of experiment: Induction of cell cycle arrest at G2 phase in human RPMI-8226 cells at 2.5 uM incubated for 24 hrs by PI staining based flow cytometry (reference value: 18.3 %). The class given is functional.
The test system of series [4] is RPMI-8226. In words: Induction of apoptosis in human RPMI-8226 cells assessed as viable cells at 2.5 uM incubated for 24 hrs by Annexin V-FITC/PI staining based flow cytometry (reference value: 90.98 %). The series is classed as functional. The settings on record: read-out: Activity.
In series [5] the test system is RPMI-8226. In words: Induction of apoptosis in human RPMI-8226 cells assessed as early apoptotic cells at 2.5 uM incubated for 24 hrs by Annexin V-FITC/PI staining based flow cytometry (reference value: 5.34 %). The series is classed as functional.
In series [6] the test system is RPMI-8226. In words: Induction of apoptosis in human RPMI-8226 cells assessed as late apoptotic cells at 2.5 uM incubated for 24 hrs by Annexin V-FITC/PI staining based flow cytometry (reference value: 2.78 %). The series is classed as functional.
For series [7], the system named is RPMI-8226. In words: Induction of apoptosis in human RPMI-8226 cells assessed as necrotic cells at 2.5 uM incubated for 24 hrs by Annexin V-FITC/PI staining based flow cytometry (reference value: 0.90 %). The series is classed as functional.
Series [8] in a line: Clearance in mouse at 1 mg/kg, iv. The series is classed as ADME, organism-based. The settings on record: in vivo.
A short description of series [9]: Volume of distribution at steady state in mouse at 1 mg/kg, iv. The class given is ADME, organism-based. The settings on record: in vivo, read-out: Vdss.
Series [10] can be described thus: AUC (0 to t) in mouse at 1 mg/kg, iv. The class given is ADME, organism-based. Particulars: in vivo.
Series [11] in a line: Half life in mouse at 1 mg/kg, iv. Particulars: in vivo. The series is classed as ADME, organism-based.
Series [12] in a line: Cmax in mouse at 10 mg/kg, po. The series is classed as ADME, organism-based. Particulars: in vivo.
A short description of series [13]: Tmax in mouse at 10 mg/kg, po. The settings on record: in vivo. The class given is ADME, organism-based.
A short description of series [14]: Oral bioavailability in mouse at 10 mg/kg. The settings on record: in vivo. The class given is ADME, organism-based.
In series [15] the test system is RPMI-8226. In words: Antitumor activity against human RPMI-8226 cells xenografted in Balb/c nude mouse assessed as ratio of tumor to control at 40 mg/kg, po qd for 21 days administered consecutively relative to control. Particulars: time 21 day. The series is classed as functional. On the technique in general: Xenograft models place foreign cells or tissue in a host animal.

A short description of series [16]: Toxicity in Balb/c nude mouse xenografted with human RPMI-8226 cells assessed as body weight loss at 40 mg/kg, po qd for 21 days administered consecutively. The settings on record: in vivo, 504 h, time 21 day. The class given is organism-based.

On to `O=C(CCCCCCNC(=O)c1cnc(N(c2ccccc2)c2ccccc2)nc1)NO` [RICOLINOSTAT], for which the Activity came to 28.1% in the series with RPMI-8226 [1]; 40.8% in the series on RPMI-8226 [2]; 24.5% with RPMI-8226 [3]; 19.84% in the series on RPMI-8226 [5]; 4.33% in the series on RPMI-8226 [6]; 0.56% with RPMI-8226 [7]. Also, the Activity result in [16] is reported as “Non-Toxic”. Moreover, in the series on RPMI-8226 [4], the viability at 2.5 µM amounted to 75.3%. For the same compound, the clearance in series [8] came out at 1.76 L/h/kg. The Vd in [9] amounted to 0.525 L/kg. The area under the curve AUC(0-t) in series [10] came to 0.566 µg·h/mL. This compound also gave a half-life in [11] of 22.3 min. Further, in series [12], the highest level (Cmax) was 0.333 µg/mL. The Tmax in series [13] is 15 min. The same compound came in with a bioavailability in series [14] of 6%. The T/C in the series with RPMI-8226 [15] worked out at 39.9%.

The term clearance denotes a measure of how efficiently the substance is removed, as volume per time. For orientation: AUC(0-t) means exposure summed from dosing to a finite time, without extrapolation to infinity. Read a high AUC(0-t) as more exposure. What is called half-life is the time needed for the level to fall by half in the phase considered. By Cmax is commonly meant the peak of the concentration-time curve. One may read the Tmax as the time from dosing to the highest level. Broadly, the bioavailability is the share of a dose that reaches the circulation, judged against a reference dose that is usually intravenous. Low readings indicate little systemic uptake, high ones much systemic uptake. In general, T/C refers to the result in the treated group divided by that in the control group, in per cent.
